# Non-standard residues stand in square brackets, D forms with d. Residues, ends and D or L forms follow the SMILES beside them. *: point of attachment. Cha = N[C@@H](CC1CCCCC1)C(=O)O; Chg = N[C@H](C(=O)O)C1CCCCC1; NHPhenethyl = c1ccc(CCN*)cc1; 12Ado = NCCCCCCCCCCCC(=O)O; Aun = NCCCCCCCCCCC(=O)O; Ahp = NCCCCCCC(=O)O; βAla = NCCC(=O)O; Sar = CNCC(=O)O
# Assays:
# [1] = target: T1, Glycylpeptide N-tetradecanoyltransferase (Candida albicans (strain SC5314 / ATCC MYA-2876) (Yeast), UniProt P30418); test: Inhibitory activity against N-myristoyltransferase (NMT) of candida albicans
# T1 sequence (P30418 whole entry): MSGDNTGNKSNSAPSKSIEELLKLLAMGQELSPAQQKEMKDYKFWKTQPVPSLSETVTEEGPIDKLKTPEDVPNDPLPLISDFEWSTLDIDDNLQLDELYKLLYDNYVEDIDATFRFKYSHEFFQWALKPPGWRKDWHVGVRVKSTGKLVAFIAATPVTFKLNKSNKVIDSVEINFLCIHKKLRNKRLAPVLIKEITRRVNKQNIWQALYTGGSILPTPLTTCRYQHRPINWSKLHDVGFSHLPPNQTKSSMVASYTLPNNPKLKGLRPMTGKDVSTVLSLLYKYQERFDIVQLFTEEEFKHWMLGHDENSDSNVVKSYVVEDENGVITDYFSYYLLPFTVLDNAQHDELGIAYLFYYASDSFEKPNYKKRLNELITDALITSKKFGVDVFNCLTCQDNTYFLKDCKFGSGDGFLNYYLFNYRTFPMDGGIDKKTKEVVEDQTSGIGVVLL
# [2] = Ratio of the IC50 against human NMT to the IC50 against Candida albicans NMT.
# [3] = target: T2, Peptide N-myristoyltransferase (Homo sapiens, UniProt P30419+O60551); test: Inhibition of human N-myristoyltransferase (NMT); format: protein assay
# T2 sequence (P30419 whole entry): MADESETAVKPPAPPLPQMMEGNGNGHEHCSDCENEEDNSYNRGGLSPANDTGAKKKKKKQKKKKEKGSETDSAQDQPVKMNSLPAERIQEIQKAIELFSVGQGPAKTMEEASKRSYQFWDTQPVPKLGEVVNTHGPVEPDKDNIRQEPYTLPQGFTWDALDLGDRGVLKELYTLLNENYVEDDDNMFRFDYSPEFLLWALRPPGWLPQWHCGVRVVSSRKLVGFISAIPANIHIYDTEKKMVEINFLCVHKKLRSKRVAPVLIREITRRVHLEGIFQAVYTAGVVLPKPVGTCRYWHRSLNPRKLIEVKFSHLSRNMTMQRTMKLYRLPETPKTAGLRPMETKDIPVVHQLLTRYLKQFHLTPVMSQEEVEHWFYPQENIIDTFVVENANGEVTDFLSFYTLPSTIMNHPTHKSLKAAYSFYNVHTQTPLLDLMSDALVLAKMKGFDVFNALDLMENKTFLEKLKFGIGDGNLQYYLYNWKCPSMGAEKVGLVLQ
# T2 sequence (O60551 whole entry): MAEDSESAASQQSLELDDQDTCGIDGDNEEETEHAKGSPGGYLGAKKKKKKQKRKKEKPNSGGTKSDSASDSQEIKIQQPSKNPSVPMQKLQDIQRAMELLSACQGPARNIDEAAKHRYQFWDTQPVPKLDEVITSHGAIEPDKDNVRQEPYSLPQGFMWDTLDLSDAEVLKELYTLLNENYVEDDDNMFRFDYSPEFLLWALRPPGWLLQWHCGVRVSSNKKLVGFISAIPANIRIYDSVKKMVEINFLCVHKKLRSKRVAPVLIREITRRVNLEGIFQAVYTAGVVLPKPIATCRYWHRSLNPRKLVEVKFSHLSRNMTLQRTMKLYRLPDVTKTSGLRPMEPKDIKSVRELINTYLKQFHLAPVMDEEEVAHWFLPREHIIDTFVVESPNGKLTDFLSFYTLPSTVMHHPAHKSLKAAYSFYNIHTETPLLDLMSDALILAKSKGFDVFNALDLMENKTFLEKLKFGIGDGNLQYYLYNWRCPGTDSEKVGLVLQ
# [4] = target: Glycylpeptide N-tetradecanoyltransferase (Candida albicans) (UniProt P30418); test: The binding affinity was evaluated towards N-myristoyltransferase (NMT) in the presence of the peptide substrate GNAASARR-NH2
# [5] = target: T2, Peptide N-myristoyltransferase; test: The binding affinity was evaluated against the acyl transferase's peptide, N-myristoyltransferase binding site; format: protein assay
Compound,IC50 [1] [µM],further results
NCCCCCCCCCCC(=O)N[C@@H](CO)C(=O)N[C@@H](CCCCN)C(=O)N[C@@H](CC1CCCCC1)C(N)=O (H-[Aun]SK[Cha]-NH2),0.36,
CC(C)C[C@H](NC(=O)CCN)C(=O)N[C@@H](Cc1ccc(O)cc1)C(=O)N[C@@H](C)C(=O)N[C@@H](CO)C(=O)N[C@@H](CCCCN)C(=O)N[C@@H](CC(C)C)C(=O)N[C@@H](CO)C(N)=O (H-[βAla]LYASKLS-NH2),110,
CC(C)CCNC(=O)[C@H](CCCCN)NC(=O)[C@H](CO)NC(=O)CCCCCCCCCCN,0.78,Ratio [2]: 0.5
CC(C)CCNC(=O)[C@@H](CCCCN)NC(=O)[C@@H](CO)NC(=O)CCCCCCCCCCN,365,
NCCCCCCCCCCC(=O)N[C@@H](CO)C(=O)N[C@@H](CCCCN)C(=O)N[C@H](C(N)=O)C1CCCCC1 (H-[Aun]SK[Chg]-NH2),0.76,
NCCCC[C@H](NC(=O)[C@H](CO)NC(=O)Cc1ccc(CCc2ccc(CN)cc2)cc1)C(=O)NCCC1CCCCC1,0.75,Ratio [2]: 83; IC50 [3]: 62 µM
NCCCCCCCCCCC(=O)N[C@@H](CO)C(=O)N[C@@H](CCCCN)C(=O)NCCCC1CCCCC1,1.3,
NCCCC[C@H](NC(=O)[C@H](CO)NC(=O)Cc1ccc(C#Cc2ccc(CN)cc2)cc1)C(=O)NCCC1CCCCC1,> 10,
CNCC(=O)N[C@@H](CC(C)C)C(=O)N[C@@H](Cc1ccc(O)cc1)C(=O)N(C)CC(=O)N[C@@H](CO)C(=O)N[C@@H](CCCCN)C(=O)N[C@@H](CC(C)C)C(=O)N[C@@H](CO)C(N)=O (H-[Sar]LY[Sar]SKLS-NH2),80,
COC(=O)[C@H](CC(C)C)NC(=O)[C@H](CCCCN)NC(=O)[C@H](CO)NC(=O)CCCCCCCCCN,0.3,
CC(C)C[C@H](NC(=O)[C@H](CCCCN)NC(=O)[C@H](CO)NC(=O)CCCCCCCCCCN)C(N)=O (stereo in doubt; 3a),1.2,
CC(C)[C@H](NC(=O)[C@H](CCCCN)NC(=O)[C@H](CO)NC(=O)CCCCCCCCCCN)C(N)=O (H-[Aun]SKV-NH2),19,
NCCCCCCCCc1ccc(CC(=O)N[C@@H](CO)C(=O)N[C@@H](CCCCN)C(=O)NCCC2CCCCC2)cc1,0.75,Ratio [2]: 70; IC50 [3]: 53 µM
NCCCCCCCCCCC(=O)N[C@@H](CO)C(=O)N[C@@H](CCCCN)C(=O)NCCCC1CCCCCCC1,0.3,Ratio [2]: 3.8; IC50 [3]: 1.14 µM
NCCCCCCc1ccc(CC(=O)N[C@@H](CO)C(=O)N[C@@H](CCCCN)C(=O)NCCC2CCCCC2)cc1,0.11,Ratio [2]: 7.3; Ki [4]: 0.06 µM; IC50 [3]: 0.8 µM
CC[C@H](C)[C@H](NC(=O)[C@H](CCCCN)NC(=O)[C@H](CO)NC(=O)CCCCCCCCCCN)C(N)=O (H-[Aun]SKI-NH2),3.9,
COC(=O)[C@H](CC(C)C)NC(=O)[C@H](CCCCN)NC(=O)[C@H](CO)NC(=O)CCCCCCN (H-[Ahp]SKL-OMe),> 100,
H-ALYASKLS-NH2,,Ki app [5]: 15.3 µM

Compound,IC50 [1] [µM],further results
NCCCCCCCCCCC(=O)N[C@@H](CO)C(=O)N[C@@H](CCCCN)C(=O)NCC(N)=O (H-[Aun]SKG-NH2),16,
NCCCC[C@H](NC(=O)[C@H](CO)NC(=O)CCCCCCc1ccc(CN)cc1)C(=O)NCCC1CCCCC1,0.34,Ratio [2]: 4.4; IC50 [3]: 1.5 µM
COC(=O)[C@H](CC(C)C)NC(=O)[C@H](CCCCN)NC(=O)[C@H](CO)NC(=O)CCCCCCCCCCCN (H-[12Ado]SKL-OMe),0.27,
CNCCCCCCCCCCC(=O)N[C@@H](CO)C(=O)N[C@@H](CCCCN)C(=O)N[C@@H](CC(C)C)C(=O)OC,0.35,
CC(C)CNC(=O)[C@H](CCCCN)NC(=O)[C@H](CO)NC(=O)CCCCCCCCCCN,> 10,
NCCCCCc1ccc(CC(=O)N[C@@H](CO)C(=O)N[C@@H](CCCCN)C(=O)NCCC2CCCCC2)cc1,0.19,Ratio [2]: 5.2; IC50 [3]: 0.99 µM
CC(C(=O)N[C@@H](CO)C(=O)N[C@@H](CCCCN)C(=O)NCCC1CCCCC1)c1ccc(CCCCCCN)cc1 (stereo not given in full),0.043,Ratio [2]: 18; IC50 [3]: 0.79 µM
NCCCCCc1cccc(CC(=O)N[C@@H](CO)C(=O)N[C@@H](CCCCN)C(=O)NCCC2CCCCC2)c1,0.52,Ratio [2]: 3.5; IC50 [3]: 1.8 µM
NCCCC[C@H](NC(=O)[C@H](CO)NC(=O)CCCCC#Cc1ccc(CN)cc1)C(=O)NCCC1CCCCC1,0.17,Ratio [2]: 4.5; IC50 [3]: 0.76 µM
NCCCCCCCCCCC(=O)N[C@@H](CO)C(=O)N[C@@H](CCCCN)C(=O)NCCc1ccccc1 (H-[Aun]-Ser-Lys-NHPhenethyl),5,
NCCCCCCCCCCC(=O)N[C@@H](CO)C(=O)N[C@@H](CCCCN)C(=O)N[C@@H](Cc1ccccc1)C(N)=O (H-[Aun]SKF-NH2),8.2,
COC(=O)[C@H](CC(C)C)NC(=O)[C@H](CCCCN)NC(=O)[C@H](CO)NC(=O)CCCCCCCCCCN (H-[Aun]SKL-OMe),0.6,
COC(=O)[C@H](CC(C)C)NC(=O)[C@H](CCCCN)NC(=O)[C@H](CO)NC(=O)CCCCCCCCCCN(C)C,0.69,
CC(C)(C)CCNC(=O)[C@H](CCCCN)NC(=O)[C@H](CO)NC(=O)CCCCCCCCCCN,1.2,
C[C@H](NC(=O)[C@H](CCCCN)NC(=O)[C@H](CO)NC(=O)CCCCCCCCCCN)C(N)=O (H-[Aun]SKA-NH2),16,
COC(=O)[C@H](CC(C)C)NC(=O)[C@H](CCCCN)NC(=O)[C@H](CO)NC(=O)CCCCCCCCN,5.2,
CC(C)C[C@H](NC(=O)[C@H](CCCCN)NC(=O)[C@H](CO)NC(=O)CCCCCCCCCCN)C(N)=O (stereo in doubt),> 1000,

# Source: ChEMBL document CHEMBL1130023, “Conformationally constrained [p-(omega-aminoalkyl)phenacetyl]-L-seryl-L-lysyl dipeptide amides as potent peptidomimetic inhibitors of Candida albicans and human myristoyl-CoA:protein N-myristoyl transferase” (J Med Chem, 1997)
